Twelve compounds from ChEMBL document CHEMBL5291721, “A preclinical secondary pharmacology resource illuminates target-adverse drug reaction associations of marketed drugs” (Nat Commun, 2023) can be followed below.

Where a SMILES comes first, the peptide text is derived from it. [ ]: non-standard residue; d: D form. pGlu = O=C1CC[C@@H](C(=O)O)N1; Thz = O=C(O)[C@@H]1CSCN1

The target in experiment [1] is 5-hydroxytryptamine receptor 2B (Homo sapiens, UniProt P41595). Format: functional, cell-based.
Experiment [2] has as its target T1, Neuropeptide Y receptor type 1 (Homo sapiens, UniProt P25929).
T1 sequence (P25929 whole entry): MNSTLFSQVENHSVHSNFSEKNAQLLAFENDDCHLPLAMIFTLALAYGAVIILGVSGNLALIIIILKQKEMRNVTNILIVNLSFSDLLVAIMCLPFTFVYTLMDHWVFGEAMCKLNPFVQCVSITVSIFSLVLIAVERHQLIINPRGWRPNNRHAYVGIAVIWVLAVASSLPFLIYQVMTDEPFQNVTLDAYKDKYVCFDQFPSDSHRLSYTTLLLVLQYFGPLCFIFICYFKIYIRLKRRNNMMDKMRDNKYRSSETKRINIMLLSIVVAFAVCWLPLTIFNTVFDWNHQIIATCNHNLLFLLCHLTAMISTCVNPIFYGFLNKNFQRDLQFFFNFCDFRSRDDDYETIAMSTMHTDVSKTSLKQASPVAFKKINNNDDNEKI

Experiment [3] concerns the target T2, Alpha-2A adrenergic receptor (Homo sapiens, UniProt P08913).
T2 sequence (P08913 whole entry): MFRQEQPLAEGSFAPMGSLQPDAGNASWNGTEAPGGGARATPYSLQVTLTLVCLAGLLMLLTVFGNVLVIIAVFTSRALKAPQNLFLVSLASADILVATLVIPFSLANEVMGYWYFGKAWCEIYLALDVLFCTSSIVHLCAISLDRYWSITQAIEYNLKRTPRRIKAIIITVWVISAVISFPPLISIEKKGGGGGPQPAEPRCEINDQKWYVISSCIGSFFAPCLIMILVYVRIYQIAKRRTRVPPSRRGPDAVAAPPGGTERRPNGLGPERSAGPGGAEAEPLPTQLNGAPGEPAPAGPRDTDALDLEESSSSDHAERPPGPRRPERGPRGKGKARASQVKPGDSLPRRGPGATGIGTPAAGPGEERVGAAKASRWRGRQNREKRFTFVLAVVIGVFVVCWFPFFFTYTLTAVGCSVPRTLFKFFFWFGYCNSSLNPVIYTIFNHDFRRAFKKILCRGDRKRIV
The format is functional, cell-based.

Experiment [4] addresses T3, Gastrin/cholecystokinin type B receptor (Homo sapiens, UniProt P32239).
T3 sequence (P32239 whole entry): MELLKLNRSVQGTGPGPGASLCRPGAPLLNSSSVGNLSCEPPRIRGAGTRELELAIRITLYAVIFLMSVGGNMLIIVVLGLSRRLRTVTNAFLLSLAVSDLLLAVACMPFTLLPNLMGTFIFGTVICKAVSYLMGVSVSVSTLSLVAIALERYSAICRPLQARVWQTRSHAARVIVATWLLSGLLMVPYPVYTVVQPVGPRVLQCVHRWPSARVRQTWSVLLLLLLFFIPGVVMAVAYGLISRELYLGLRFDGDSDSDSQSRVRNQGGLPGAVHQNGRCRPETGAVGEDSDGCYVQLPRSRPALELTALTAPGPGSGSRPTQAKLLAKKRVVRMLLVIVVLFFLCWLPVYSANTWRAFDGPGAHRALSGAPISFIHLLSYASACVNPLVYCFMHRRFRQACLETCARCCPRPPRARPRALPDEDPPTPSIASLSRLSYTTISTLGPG

Experiment [5] deals with T4, Cholecystokinin receptor type A (Homo sapiens, UniProt P32238).
T4 sequence (P32238 whole entry): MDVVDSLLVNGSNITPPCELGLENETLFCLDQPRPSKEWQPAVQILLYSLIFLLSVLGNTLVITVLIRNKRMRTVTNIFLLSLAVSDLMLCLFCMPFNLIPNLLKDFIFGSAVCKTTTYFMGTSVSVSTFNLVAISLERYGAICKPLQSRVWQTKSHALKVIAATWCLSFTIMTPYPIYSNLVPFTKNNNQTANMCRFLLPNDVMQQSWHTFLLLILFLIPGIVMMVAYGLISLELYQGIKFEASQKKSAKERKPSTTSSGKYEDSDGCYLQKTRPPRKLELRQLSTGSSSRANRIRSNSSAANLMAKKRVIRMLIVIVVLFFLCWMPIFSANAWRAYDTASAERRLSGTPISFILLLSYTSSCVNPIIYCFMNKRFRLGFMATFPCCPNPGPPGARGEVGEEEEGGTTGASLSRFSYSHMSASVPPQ

For experiment [6], the target named is T5, Equilibrative nucleoside transporter 1 (Homo sapiens, UniProt Q99808).
T5 sequence (Q99808 whole entry): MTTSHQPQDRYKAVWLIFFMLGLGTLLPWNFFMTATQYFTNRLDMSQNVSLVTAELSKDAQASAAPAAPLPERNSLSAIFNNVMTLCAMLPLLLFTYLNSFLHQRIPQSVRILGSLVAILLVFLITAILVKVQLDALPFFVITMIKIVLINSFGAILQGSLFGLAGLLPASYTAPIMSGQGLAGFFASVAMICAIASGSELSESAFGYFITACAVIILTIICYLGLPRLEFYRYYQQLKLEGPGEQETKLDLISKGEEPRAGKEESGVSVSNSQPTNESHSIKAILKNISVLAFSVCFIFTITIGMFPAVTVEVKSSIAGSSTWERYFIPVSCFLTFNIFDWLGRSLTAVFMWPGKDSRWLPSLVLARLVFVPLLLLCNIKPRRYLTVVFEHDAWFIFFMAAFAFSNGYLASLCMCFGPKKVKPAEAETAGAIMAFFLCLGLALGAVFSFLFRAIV

Experiment [7] addresses Beta-2 adrenergic receptor (Homo sapiens, UniProt P07550).
For experiment [8], the target named is Delta-type opioid receptor (Homo sapiens, UniProt P41143).
Experiment [9] deals with Kappa-type opioid receptor (Homo sapiens, UniProt P41145).
The target in the next experiment is Motilin receptor (Homo sapiens, UniProt O43193).
Experiment [10] addresses Sodium-dependent dopamine transporter (Homo sapiens, UniProt Q01959).
Note: assay procedure not described here.

Chain of Kappa-type opioid receptor (P41145 whole entry): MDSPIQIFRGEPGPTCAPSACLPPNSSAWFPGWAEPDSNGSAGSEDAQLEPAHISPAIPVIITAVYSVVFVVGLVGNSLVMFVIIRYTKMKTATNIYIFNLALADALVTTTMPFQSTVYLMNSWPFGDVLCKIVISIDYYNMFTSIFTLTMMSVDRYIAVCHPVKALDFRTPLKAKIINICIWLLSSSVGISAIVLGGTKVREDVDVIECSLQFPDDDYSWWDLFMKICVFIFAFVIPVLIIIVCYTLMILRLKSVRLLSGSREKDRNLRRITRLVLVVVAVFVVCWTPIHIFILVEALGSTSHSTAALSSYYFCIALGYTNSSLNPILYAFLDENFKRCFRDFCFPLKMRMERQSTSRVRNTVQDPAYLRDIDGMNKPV
Chain of Sodium-dependent dopamine transporter (Q01959 whole entry): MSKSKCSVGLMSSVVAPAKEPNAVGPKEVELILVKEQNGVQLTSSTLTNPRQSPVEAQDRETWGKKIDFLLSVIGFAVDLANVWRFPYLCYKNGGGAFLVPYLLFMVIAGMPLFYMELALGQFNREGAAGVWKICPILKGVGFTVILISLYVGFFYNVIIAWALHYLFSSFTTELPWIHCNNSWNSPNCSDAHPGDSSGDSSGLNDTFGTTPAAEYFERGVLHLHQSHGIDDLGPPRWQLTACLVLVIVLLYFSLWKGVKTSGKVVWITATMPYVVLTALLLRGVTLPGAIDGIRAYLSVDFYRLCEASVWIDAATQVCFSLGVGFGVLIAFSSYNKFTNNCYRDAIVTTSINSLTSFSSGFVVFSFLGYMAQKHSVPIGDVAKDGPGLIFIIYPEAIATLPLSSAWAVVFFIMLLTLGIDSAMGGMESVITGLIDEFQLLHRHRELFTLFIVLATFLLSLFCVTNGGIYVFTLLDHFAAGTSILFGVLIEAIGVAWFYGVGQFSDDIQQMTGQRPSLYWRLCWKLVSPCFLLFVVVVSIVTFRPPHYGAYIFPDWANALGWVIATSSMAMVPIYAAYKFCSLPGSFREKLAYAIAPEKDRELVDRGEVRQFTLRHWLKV
Chain of Motilin receptor (O43193 whole entry): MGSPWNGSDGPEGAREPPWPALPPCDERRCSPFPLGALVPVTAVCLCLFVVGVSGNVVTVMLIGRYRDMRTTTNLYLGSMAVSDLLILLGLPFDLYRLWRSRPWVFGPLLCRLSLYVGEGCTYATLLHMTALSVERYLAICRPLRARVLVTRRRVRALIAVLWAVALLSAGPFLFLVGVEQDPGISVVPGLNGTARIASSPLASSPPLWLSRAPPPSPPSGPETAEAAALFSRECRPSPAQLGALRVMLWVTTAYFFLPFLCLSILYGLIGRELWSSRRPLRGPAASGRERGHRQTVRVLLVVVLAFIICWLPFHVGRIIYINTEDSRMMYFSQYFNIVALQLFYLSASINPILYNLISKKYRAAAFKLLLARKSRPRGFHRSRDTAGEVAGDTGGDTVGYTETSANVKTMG
Chain of Beta-2 adrenergic receptor (P07550 whole entry): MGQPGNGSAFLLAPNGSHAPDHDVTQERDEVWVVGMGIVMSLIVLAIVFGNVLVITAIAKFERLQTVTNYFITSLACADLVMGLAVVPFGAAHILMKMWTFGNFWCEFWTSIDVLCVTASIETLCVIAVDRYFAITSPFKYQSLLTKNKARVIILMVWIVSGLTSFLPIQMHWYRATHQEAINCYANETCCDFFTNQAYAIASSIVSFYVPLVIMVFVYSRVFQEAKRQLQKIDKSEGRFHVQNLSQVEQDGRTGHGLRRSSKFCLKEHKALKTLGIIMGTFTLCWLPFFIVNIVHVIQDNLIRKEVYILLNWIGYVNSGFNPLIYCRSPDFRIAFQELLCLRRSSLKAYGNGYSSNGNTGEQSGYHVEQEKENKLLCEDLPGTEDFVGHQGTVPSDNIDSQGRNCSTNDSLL
Chain of Delta-type opioid receptor (P41143 whole entry): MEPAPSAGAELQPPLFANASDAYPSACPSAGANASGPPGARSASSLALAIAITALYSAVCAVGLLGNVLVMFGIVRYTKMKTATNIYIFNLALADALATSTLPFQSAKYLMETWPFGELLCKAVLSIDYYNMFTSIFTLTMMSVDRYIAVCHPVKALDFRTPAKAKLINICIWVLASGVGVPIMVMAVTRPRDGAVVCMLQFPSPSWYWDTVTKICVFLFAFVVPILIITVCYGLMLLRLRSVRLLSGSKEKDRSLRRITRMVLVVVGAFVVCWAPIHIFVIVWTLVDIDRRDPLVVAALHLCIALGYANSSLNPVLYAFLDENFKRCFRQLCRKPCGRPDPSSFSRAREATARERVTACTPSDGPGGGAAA
Chain of 5-hydroxytryptamine receptor 2B (P41595 whole entry): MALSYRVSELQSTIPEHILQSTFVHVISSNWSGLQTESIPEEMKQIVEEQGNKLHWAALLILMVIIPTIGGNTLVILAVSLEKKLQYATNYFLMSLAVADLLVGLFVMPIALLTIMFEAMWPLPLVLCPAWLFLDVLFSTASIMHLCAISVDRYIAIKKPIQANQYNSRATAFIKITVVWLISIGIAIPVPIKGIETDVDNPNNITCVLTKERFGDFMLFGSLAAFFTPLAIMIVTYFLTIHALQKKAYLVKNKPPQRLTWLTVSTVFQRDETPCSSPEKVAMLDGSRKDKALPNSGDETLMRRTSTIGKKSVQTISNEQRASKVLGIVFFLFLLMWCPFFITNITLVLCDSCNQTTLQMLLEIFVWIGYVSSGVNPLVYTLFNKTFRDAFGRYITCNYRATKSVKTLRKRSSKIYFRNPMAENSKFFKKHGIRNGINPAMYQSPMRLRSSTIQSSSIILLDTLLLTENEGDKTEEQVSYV

Take `COc1ccc(CN2CCN(C(c3ccc(F)cc3)c3ccc(F)cc3)CC2)c(OC)c1OC` [LOMERIZINE]: the AC50 in experiment [1], in experiment [2], in experiment [3], in experiment [4], in experiment [5] and in [6] was above 30 µM in each case. Besides, the AC50 in [7] is above 30 µM; in experiment [8], above 30 µM; in [9], 12 µM; at Motilin receptor it was above 30 µM; in experiment [10], 16 µM.
For the compound `O=C1Nc2ccc(Cl)cc2C(c2ccccc2Cl)=NC1O` (configuration not stated) [LORAZEPAM], the AC50 is above 10 µM in experiment [1]; above 30 µM in [2]; above 10 µM in experiment [3]; above 30 µM in experiment [4]; above 30 µM in experiment [5]; above 30 µM in [6]. Also, the AC50 in experiment [7] is above 10 µM; in experiment [8], above 30 µM; in experiment [9], above 10 µM; on Motilin receptor it was above 10 µM; in experiment [10], above 10 µM.
Turning to `Cc1ccnc2c1NC(=O)c1cccnc1N2C1CC1` [NEVIRAPINE], the AC50 is above 10 µM in experiment [1]; above 30 µM in experiment [2]; above 10 µM in experiment [3]; above 30 µM in [4]; above 30 µM in [5]; above 30 µM in [6]. Besides, the AC50 (in experiment [7]; in [8]; in experiment [9]; at Motilin receptor; in experiment [10]) was above 10 µM throughout.
Regarding `OC[C@H]1O[C@@H](Oc2cc(O)cc(/C=C/c3ccc(O)cc3)c2)[C@H](O)[C@@H](O)[C@@H]1O` [PICEID], the AC50 in experiment [1], in experiment [2], in experiment [3], in experiment [4], in experiment [5] and in experiment [6] was above 30 µM throughout. Further, the AC50 (in [7]; in experiment [8]; in experiment [9]; at Motilin receptor; in [10]) was above 30 µM each time.
Turning to `O=C1CC[C@@H](C(=O)N2CSC[C@H]2C(=O)O)N1` [PIDOTIMOD] ([pGlu]-[Thz]-OH), the AC50 in experiment [1], in experiment [2], in experiment [3], in experiment [4], in [5] and in experiment [6] was above 30 µM in each case. The AC50 (in [7]; in [8]; in experiment [9]; at Motilin receptor; in experiment [10]) was above 30 µM each time.
In the case of `CCC(NC(C)C)C(O)c1ccc(O)c2[nH]c(=O)ccc12` (configuration not stated) [PROCATEROL], the AC50 in experiment [1], in experiment [2], in experiment [3], in experiment [4], in experiment [5] and in experiment [6] was above 30 µM throughout. Further, the AC50 was 0.2 µM in experiment [7]; above 30 µM in experiment [8]; above 30 µM in [9]; above 30 µM at Motilin receptor; above 30 µM in [10].
Regarding `C=CC[N+]1([C@H]2C[C@H]3[C@@H]4CC[C@H]5C[C@H](O)[C@@H](N6CCOCC6)C[C@]5(C)[C@H]4CC[C@]3(C)[C@H]2OC(C)=O)CCCC1` [ROCURONIUM], the AC50 in experiment [1], in experiment [2], in [3], in experiment [4], in [5] and in experiment [6] was above 30 µM throughout. Further, the AC50 (in [7]; in experiment [8]; in [9]; at Motilin receptor; in experiment [10]) was above 30 µM in each case.
On to `CCCN1CCCC[C@H]1C(=O)Nc1c(C)cccc1C` [ROPIVACAINE], for which the half-maximal activity concentration (AC50) in [1], in experiment [2], in experiment [3], in [4], in experiment [5] and in experiment [6] was above 30 µM in each case. Besides, the AC50 (in experiment [7]; in experiment [8]; in [9]; on Motilin receptor; in [10]) was above 30 µM in each case.
`CCOC(=O)c1ccc(C#Cc2ccc3c(c2)C(C)(C)CCS3)nc1` [TAZAROTENE]: the AC50 in experiment [1] was above 10 µM; in experiment [2], above 30 µM; in experiment [3] it was above 10 µM; in experiment [4] it was above 30 µM; in [5], above 30 µM; in experiment [6] it was above 30 µM. Also, the AC50 was above 10 µM in experiment [7]; above 30 µM in [8]; above 10 µM in [9]; above 10 µM at Motilin receptor; above 30 µM in [10].
As to `Cn1c(=O)c2c(ncn2CCOC(=O)C(C)(C)Oc2ccc(Cl)cc2)n(C)c1=O` [THEOFIBRATE], the AC50 in experiment [1], in experiment [2], in experiment [3], in [4], in [5] and in experiment [6] was above 30 µM throughout. Also, the AC50 (in experiment [7]; in experiment [8]; in [9]; at Motilin receptor; in [10]) was above 30 µM each time.
Regarding `COc1cc(C(=O)NC2CCCNC2)cc(OC)c1OC` (configuration not stated) [TROXIPIDE], the AC50 in [1], in experiment [2], in experiment [3], in experiment [4], in experiment [5] and in [6] was above 30 µM in each case. Moreover, the AC50 in [7] is above 30 µM; in [8] it was above 30 µM; in experiment [9], 16 µM; at Motilin receptor it was above 30 µM; in [10] it was above 30 µM.
Turning to `CC(C(=O)O)c1ccc2c(c1)CC(=O)c1ccccc1S2` (configuration not stated) [ZALTOPROFEN], the AC50 in [1], in experiment [2], in experiment [3], in [4], in [5] and in experiment [6] was above 30 µM in each case. The concentration at half-maximal activity (AC50) is above 30 µM in experiment [7]; above 30 µM in experiment [8]; 24 µM in [9]; above 30 µM on Motilin receptor; above 30 µM in experiment [10].

A word on the AC50: it is the concentration giving half of the maximal activity seen.
